Source: US20070265231A1, “Hydrazide Compounds for Combating Animal Pests” (priority 2005, published 2007)

Legend:
Bean Aphid (Aphis fabae) = assay: Bean aphid mortality test, nasturtium plants dipped in test solution; assay type: in vivo; conditions: 300 ppm, after 3 days
From the text: I.4 Bean Aphid (Aphis fabae)
Nasturtium plants grown in Metro mix in the 1st leaf-pair stage (variety ‘Mixed Jewel’) were infested with approximately 2-30 laboratory-reared aphids by placing infested cut plants on top of the test plants. The cut plants were removed after 24 hr. Each plant was dipped into the test solution to provide complete coverage of the foliage, stem, protruding seed surface and surrounding cube surface and allowed to dry in the fume hood. The treated plants were kept at about 25° C. with continuous fluorescent light. Aphid mortality is determined after 3 days.

[1] = system: Orchid thrips (dichromothrips corbetti); assay: Orchid thrips mortality test, floral-immersion technique; assay type: in vivo; conditions: 96 h, orchid petals dipped, adult thrips, after 4 days, read-out: mortality in comparison with untreated controls
Procedure: I.3 Orchid thrips (dichromothrips corbetti)
Dichromothrips corbetti adults used for bioassay were obtained from a colony maintained continuously under laboratory conditions. For testing purposes, the test compound was diluted to a concentration of 500 ppm (wt compound: vol diluent) in a 1:1 mixture of acetone:water, plus 0.01% Kinetic® surfactant.
Thrips potency of each compound was evaluated by using a floral-immersion technique. Plastic petri dishes were used as test arenas. All petals of individual, intact orchid flowers were dipped into treatment solution for approximately 3 seconds and allowed to dry for 2 hours. Treated flowers were placed into individual petri dishes along with 10-15 adult thrips. The petri dishes were then covered with lids. All test arenas were held under continuous light and a temperature of about 28° C. for duration of the assay. After 4 days, the numbers of live thrips were counted on each flower, and along inner walls of each petri dish. The level of thrips mortality was extrapolated from pre-treatment thrips numbers.

In the case of `CC(=Cc1ccccc1)CNNC(=O)c1ccc(F)cc1F` [A141], the “mortality in comparison with untreated controls” value (from here on “mortality in comparison”) (Bean Aphid (Aphis fabae)) is reported as 75%.

In the case of `CC(=Cc1cccc(F)c1)CNN(C)C(=O)c1ccccc1` [A93], the “mortality in comparison” value (Bean Aphid (Aphis fabae)) is reported as 75%.

In the case of `O=C(NNCC=Cc1ccc(Cl)s1)c1ccccn1` [E1], the “mortality in comparison” value (Bean Aphid (Aphis fabae)) is reported as 75%.

With `CC(=Cc1ccccc1F)CNNC(=O)c1ccc(F)cc1F` [A305] the “mortality in comparison” value (Bean Aphid (Aphis fabae)) was 75%.

In the case of `CC(=Cc1cccc(F)c1)CNNC(=O)c1ccccc1F` [A1, 2-Fluorobenzoic acid N′-[3-(3-fluorophenyl)-2-methyl-allyl]hydrazide], the mortality at 300 ppm [1] is reported as > 75%.

In the case of `CC(C)C(=Cc1ccco1)CNNC(=O)c1ccccn1` [E3], the “mortality in comparison” value (Bean Aphid (Aphis fabae)) is reported as 75%.
